Experimental data from ChEMBL document CHEMBL4219190, “Studies on synthesis of novel pyrido[2,3-d]pyrimidine derivatives, evaluation of their antimicrobial activity and molecular docking” (Bioorg Med Chem Lett, 2018).
Converted amounts (≈) assume the structure as drawn. The source made the active and inactive calls. No cut-off for these calls is given here.

Tests used:
Nakaseomyces glabratus [1] = assay: Fungicidal activity against Candida glabrata MTCC 3019 incubated for 24 hrs followed by transfer of microbial suspension to Sabouraud dextrose agar plates and measured after 24 hrs post transfer; assay type: functional; conditions: MTCC 3019, 24 h
Candida albicans [2] = assay: Fungicidal activity against Candida albicans MTCC 4748 incubated for 24 hrs followed by transfer of microbial suspension to Sabouraud dextrose agar plates and measured after 24 hrs post transfer; assay type: functional; conditions: MTCC 4748, 24 h
Candida albicans [3] = assay: Fungicidal activity against Candida albicans MTCC 3958 incubated for 24 hrs followed by transfer of microbial suspension to Sabouraud dextrose agar plates and measured after 24 hrs post transfer; assay type: functional; conditions: MTCC 3958, 24 h
Raoultella planticola [4] = assay: Antibacterial activity against Klebsiella planticola MTCC 530 after 24 hrs by well diffusion method; assay type: functional; conditions: MTCC 530, 24 h
Pichia sporocuriosa [5] = assay: Fungicidal activity against Issatchenkia hanoiensis MTCC 4755 incubated for 24 hrs followed by transfer of microbial suspension to Sabouraud dextrose agar plates and measured after 24 hrs post transfer; assay type: functional; conditions: MTCC 4755, 24 h
Candida albicans [6] = assay: Antifungal activity against Candida albicans MTCC 183 after 24 hrs by well diffusion method; assay type: functional; conditions: MTCC 183, 24 h
Micrococcus luteus [7] = assay: Antibacterial activity against Micrococcus luteus MTCC 2470 after 24 hrs by well diffusion method; assay type: functional; conditions: MTCC 2470, 24 h
Staphylococcus aureus [8] = assay: Antibacterial activity against Staphylococcus aureus MTCC 96 after 24 hrs by well diffusion method; assay type: functional; conditions: MTCC 96, 24 h
Candida albicans [9] = assay: Fungicidal activity against Candida albicans MTCC 183 incubated for 24 hrs followed by transfer of microbial suspension to Sabouraud dextrose agar plates and measured after 24 hrs post transfer; assay type: functional; conditions: MTCC 183, 24 h
Candida albicans [10] = assay: Antifungal activity against Candida albicans MTCC 3958 after 24 hrs by well diffusion method; assay type: functional; conditions: MTCC 3958, 24 h
Candida albicans [11] = assay: Antifungal activity against Candida albicans MTCC 3017 after 24 hrs by well diffusion method; assay type: functional; conditions: MTCC 3017, 24 h
[Candida] aaseri [12] = Fungicidal activity against Candida aaseri MTCC 1962 incubated for 24 hrs followed by transfer of microbial suspension to Sabouraud dextrose agar plates and measured after 24 hrs post transfer; assay type: functional; conditions: Yamadazyma aaseri, MTCC 1962, 24 h
Candida albicans [13] = assay: Fungicidal activity against Candida albicans MTCC 1637 incubated for 24 hrs followed by transfer of microbial suspension to Sabouraud dextrose agar plates and measured after 24 hrs post transfer; assay type: functional; conditions: MTCC 1637, 24 h
Escherichia coli [14] = assay: Antibacterial activity against Escherichia coli MTCC 739 after 24 hrs by well diffusion method; assay type: functional; conditions: MTCC 739, 24 h
Candida albicans [15] = assay: Antifungal activity against Candida albicans MTCC 854 after 24 hrs by well diffusion method; assay type: functional; conditions: MTCC 854, 24 h
Candida parapsilosis [16] = assay: Antifungal activity against Candida parapsilosis MTCC 1744 after 24 hrs by well diffusion method; assay type: functional; conditions: MTCC 1744, 24 h
Candida albicans [17] = assay: Antifungal activity against Candida albicans MTCC 1637 after 24 hrs by well diffusion method; assay type: functional; conditions: MTCC 1637, 24 h
Pichia sporocuriosa [18] = assay: Antifungal activity against Issatchenkia hanoiensis MTCC 4755 after 24 hrs by well diffusion method; assay type: functional; conditions: MTCC 4755, 24 h
Candida albicans [19] = assay: Fungicidal activity against Candida albicans MTCC 3017 incubated for 24 hrs followed by transfer of microbial suspension to Sabouraud dextrose agar plates and measured after 24 hrs post transfer; assay type: functional; conditions: MTCC 3017, 24 h
Staphylococcus aureus [20] = assay: Bactericidal activity against Staphylococcus aureus MTCC 96 incubated for 24 hrs followed by transfer of microbial suspension to Mueller Hinton agar plates and measured after 24 hrs post transfer; assay type: functional; conditions: MTCC 96, 24 h
Candida albicans [21] = assay: Antifungal activity against Candida albicans MTCC 4748 after 24 hrs by well diffusion method; assay type: functional; conditions: MTCC 4748, 24 h
Candida albicans [22] = assay: Fungicidal activity against Candida albicans MTCC 7315 incubated for 24 hrs followed by transfer of microbial suspension to Sabouraud dextrose agar plates and measured after 24 hrs post transfer; assay type: functional; conditions: MTCC 7315, 24 h
Escherichia coli [23] = assay: Bactericidal activity against Escherichia coli MTCC 739 incubated for 24 hrs followed by transfer of microbial suspension to Mueller Hinton agar plates and measured after 24 hrs post transfer; assay type: functional; conditions: MTCC 739, 24 h
Candida albicans [24] = assay: Fungicidal activity against Candida albicans MTCC 3018 incubated for 24 hrs followed by transfer of microbial suspension to Sabouraud dextrose agar plates and measured after 24 hrs post transfer; assay type: functional; conditions: MTCC 3018, 24 h
Bacillus subtilis [25] = assay: Antibiofilm activity against Bacillus subtilis MTCC 121 after 24 hrs by crystal violet staining-based assay; assay type: functional, organism-based; conditions: Bacillus subtilis, MTCC 121, 24 h; read-out: IC50
Micrococcus luteus [26] = assay: Bactericidal activity against Micrococcus luteus MTCC 2470 incubated for 24 hrs followed by transfer of microbial suspension to Mueller Hinton agar plates and measured after 24 hrs post transfer; assay type: functional; conditions: MTCC 2470, 24 h
Staphylococcus aureus [27] = assay: Bactericidal activity against Staphylococcus aureus MLS16 MTCC 2940 incubated for 24 hrs followed by transfer of microbial suspension to Mueller Hinton agar plates and measured after 24 hrs post transfer; assay type: functional; conditions: MLS16 MTCC 2940, 24 h
Staphylococcus aureus [28] = assay: Antibacterial activity against Staphylococcus aureus MLS16 MTCC 2940 after 24 hrs by well diffusion method; assay type: functional; conditions: MLS16 MTCC 2940, 24 h
Candida albicans [29] = assay: Fungicidal activity against Candida albicans MTCC 854 incubated for 24 hrs followed by transfer of microbial suspension to Sabouraud dextrose agar plates and measured after 24 hrs post transfer; assay type: functional; conditions: MTCC 854, 24 h
Raoultella planticola [30] = assay: Bactericidal activity against Klebsiella planticola MTCC 530 incubated for 24 hrs followed by transfer of microbial suspension to Mueller Hinton agar plates and measured after 24 hrs post transfer; assay type: functional; conditions: MTCC 530, 24 h
Pichia kudriavzevii [31] = assay: Fungicidal activity against Candida krusei MTCC 3020 incubated for 24 hrs followed by transfer of microbial suspension to Sabouraud dextrose agar plates and measured after 24 hrs post transfer; assay type: functional
Candida albicans [32] = assay: Fungicidal activity against Candida albicans MTCC 227 incubated for 24 hrs followed by transfer of microbial suspension to Sabouraud dextrose agar plates and measured after 24 hrs post transfer; assay type: functional; conditions: MTCC 227, 24 h
Pseudomonas aeruginosa [33] = assay: Antibacterial activity against Pseudomonas aeruginosa MTCC 2453 after 24 hrs by well diffusion method; assay type: functional; conditions: MTCC 2453, 24 h
Candida albicans [34] = assay: Antifungal activity against Candida albicans MTCC 227 after 24 hrs by well diffusion method; assay type: functional; conditions: MTCC 227, 24 h
Pseudomonas aeruginosa [35] = assay: Bactericidal activity against Pseudomonas aeruginosa MTCC 2453 incubated for 24 hrs followed by transfer of microbial suspension to Mueller Hinton agar plates and measured after 24 hrs post transfer; assay type: functional; conditions: MTCC 2453, 24 h
Bacillus subtilis [36] = assay: Antibacterial activity against Bacillus subtilis MTCC 121 after 24 hrs by well diffusion method; assay type: functional; conditions: MTCC 121, 24 h
Nakaseomyces glabratus [37] = assay: Antifungal activity against Candida glabrata MTCC 3019 after 24 hrs by well diffusion method; assay type: functional; conditions: MTCC 3019, 24 h
Candida albicans [38] = assay: Antifungal activity against Candida albicans MTCC 7315 after 24 hrs by well diffusion method; assay type: functional; conditions: MTCC 7315, 24 h
Candida albicans [39] = assay: Antifungal activity against Candida albicans MTCC 3018 after 24 hrs by well diffusion method; assay type: functional; conditions: MTCC 3018, 24 h
Pseudomonas aeruginosa [40] = assay: Antibiofilm activity against Pseudomonas aeruginosa MTCC 2453 after 24 hrs by crystal violet staining-based assay; assay type: functional, organism-based; conditions: Pseudomonas aeruginosa, MTCC 2453, 24 h; read-out: IC50
Staphylococcus aureus [41] = assay: Antibiofilm activity against Staphylococcus aureus MTCC 96 after 24 hrs by crystal violet staining-based assay; assay type: functional, organism-based; conditions: Staphylococcus aureus, MTCC 96, 24 h; read-out: IC50
[Candida] aaseri [42] = Antifungal activity against Candida aaseri MTCC 1962 after 24 hrs by well diffusion method; assay type: functional; conditions: Yamadazyma aaseri, MTCC 1962, 24 h
Pichia kudriavzevii [43] = assay: Antifungal activity against Candida krusei MTCC 3020 after 24 hrs by well diffusion method; assay type: functional
Candida parapsilosis [44] = assay: Fungicidal activity against Candida parapsilosis MTCC 1744 incubated for 24 hrs followed by transfer of microbial suspension to Sabouraud dextrose agar plates and measured after 24 hrs post transfer; assay type: functional; conditions: Lodderomyces parapsilosis, MTCC 1744, 24 h
Staphylococcus aureus [45] = assay: Antibiofilm activity against Staphylococcus aureus MLS16 MTCC 2940 after 24 hrs by crystal violet staining-based assay; assay type: functional, organism-based; conditions: Staphylococcus aureus, MLS16 MTCC 2940, 24 h; read-out: IC50
Bacillus subtilis [46] = assay: Bactericidal activity against Bacillus subtilis MTCC 121 incubated for 24 hrs followed by transfer of microbial suspension to Mueller Hinton agar plates and measured after 24 hrs post transfer; assay type: functional; conditions: MTCC 121, 24 h
Raoultella planticola [47] = assay: Antibiofilm activity against Klebsiella planticola MTCC 530 after 24 hrs by crystal violet staining-based assay; assay type: functional, organism-based; conditions: Klebsiella planticola, MTCC 530, 24 h; read-out: IC50

MIC (Candida albicans [6]): 3.9 µg/mL (≈ 7.68 µM)
MIC (Micrococcus luteus [7]): 15.6 µg/mL (≈ 30.7 µM)
MIC (Staphylococcus aureus [8]): 7.8 µg/mL (≈ 15.4 µM)
MIC (Candida albicans [10]): 62.5 µg/mL (≈ 123 µM)
MIC (Candida albicans [11]): 3.9 µg/mL (≈ 7.68 µM)
MIC (Escherichia coli [14]): 15.6 µg/mL (≈ 30.7 µM)
MIC (Candida albicans [15]): 15.6 µg/mL (≈ 30.7 µM)
MIC (Candida parapsilosis [16]): 15.6 µg/mL (≈ 30.7 µM)
MIC (Candida albicans [17]): 15.6 µg/mL (≈ 30.7 µM)
MIC (Pichia sporocuriosa [18]): 7.8 µg/mL (≈ 15.4 µM)
MIC (Candida albicans [21]): 62.5 µg/mL (≈ 123 µM)
IC50 (Bacillus subtilis [25]): 2.7 µg/mL (≈ 5.32 µM)
MIC (Staphylococcus aureus [28]): 15.6 µg/mL (≈ 30.7 µM)
MIC (Pseudomonas aeruginosa [33]): 7.8 µg/mL (≈ 15.4 µM)
MIC (Candida albicans [34]): 31.2 µg/mL (≈ 61.5 µM)
MIC (Bacillus subtilis [36]): 7.8 µg/mL (≈ 15.4 µM)
MIC (Nakaseomyces glabratus [37]): 7.8 µg/mL (≈ 15.4 µM)
MIC (Candida albicans [38]): 31.2 µg/mL (≈ 61.5 µM)
MIC (Candida albicans [39]): 31.2 µg/mL (≈ 61.5 µM)
IC50 (Pseudomonas aeruginosa [40]): 2.7 µg/mL (≈ 5.32 µM)
IC50 (Staphylococcus aureus [41]): 5.4 µg/mL (≈ 10.6 µM)
MIC ([Candida] aaseri [42]): 15.6 µg/mL (≈ 30.7 µM)
MIC (Pichia kudriavzevii [43]): inactive
IC50 (Staphylococcus aureus [45]): 10.8 µg/mL (≈ 21.3 µM)
SMILES: COc1ccc(-c2nc(C(=O)N3CCN(C)CC3)nc3nc(-c4ccccc4)cc(C(F)(F)F)c23)cc1
MFC (Nakaseomyces glabratus [1]): 15.6 µg/mL (≈ 30.7 µM)
MFC (Candida albicans [2]): 62.5 µg/mL (≈ 123 µM)
MFC (Candida albicans [3]): 62.5 µg/mL (≈ 123 µM)
MIC (Raoultella planticola [4]): 15.6 µg/mL (≈ 30.7 µM)
MFC (Pichia sporocuriosa [5]): 15.6 µg/mL (≈ 30.7 µM)
MFC (Candida albicans [9]): 7.8 µg/mL (≈ 15.4 µM)
MFC ([Candida] aaseri [12]): 31.2 µg/mL (≈ 61.5 µM)
MFC (Candida albicans [13]): 31.2 µg/mL (≈ 61.5 µM)
MFC (Candida albicans [19]): 7.8 µg/mL (≈ 15.4 µM)
MBC (Staphylococcus aureus [20]): 15.6 µg/mL (≈ 30.7 µM)
MFC (Candida albicans [22]): 62.5 µg/mL (≈ 123 µM)
MBC (Escherichia coli [23]): 31.2 µg/mL (≈ 61.5 µM)
MFC (Candida albicans [24]): 62.5 µg/mL (≈ 123 µM)
MBC (Micrococcus luteus [26]): 31.2 µg/mL (≈ 61.5 µM)
MBC (Staphylococcus aureus [27]): 15.6 µg/mL (≈ 30.7 µM)
MFC (Candida albicans [29]): 31.2 µg/mL (≈ 61.5 µM)
MBC (Raoultella planticola [30]): 31.2 µg/mL (≈ 61.5 µM)
MFC (Pichia kudriavzevii [31]): inactive
MFC (Candida albicans [32]): 31.2 µg/mL (≈ 61.5 µM)
MBC (Pseudomonas aeruginosa [35]): 15.6 µg/mL (≈ 30.7 µM)
MFC (Candida parapsilosis [44]): 31.2 µg/mL (≈ 61.5 µM)
MBC (Bacillus subtilis [46]): 15.6 µg/mL (≈ 30.7 µM)
IC50 (Raoultella planticola [47]): 10.8 µg/mL (≈ 21.3 µM)
